For this assay, the system named is CEM cells HIV-1 protection, formazan growth assay. In words: NCI AIDS Antiviral Assay. The following applies: for IC50: measured here: growth of uninfected CEM cells. Summed up:
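Five concentrations of each compound were applied to infected and uninfected human CEM cells. Protection from HIV-1 was judged from growth measured with a soluble formazan assay.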

Each structure is given as a SMILES string. “And” between values parts separate entries of the source, which are not always exact repeats. Equal entries are not always repeated. The source made the active and inactive calls.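 Rule for the calls: active = compounds giving half or more protection of infected cells from virus-caused growth loss, again on retest; inactive = the rest.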 Where a SMILES comes first, the peptide text is derived from it.

As a reminder, the EC50 is the concentration at which the effect is half-maximal. As a reminder, the IC50 is the point on the concentration scale where inhibition reaches its midpoint. Read a high IC50 as weaker potency in that assay.

With `CCOc1ccc(/C(O)=C/c2nc3ccccc3nc2/C=C(\O)c2ccc(OCC)cc2)cc1`, the EC50 was > 100 µM and the 50% inhibitory concentration (IC50) was > 100 µM.
As for `C(=Nc1ccc(C2=NCCN2)cc1)c1ccc(C=Nc2ccc(C3=NCCN3)cc2)cc1`, the EC50 was > 200 µM and the IC50 was found to be 11.7 µM.
Turning to `OCCN1c2ccccc2Sc2ccccc21`, the EC50 is > 200 µM and the IC50 worked out at 105 µM.
The corresponding values for `C=C1CN(C2=NCCO2)C1` are > 200 µM and > 200 µM.
In the same order, the values of `Cn1nc2ccccc2cc1=O` are > 1550 µM and 661 µM.
In the case of `O=c1c(Sc2c(O)c3ccccc3c3ccccc3c2=O)c(O)c2ccccc2c2ccccc12`, the outcome was inactive.
As for `CCOC(=O)[C@]12C3C=CC(C3)C1C(=O)C1OC12` (stereo partly drawn), the EC50 is > 562 µM and the IC50 was > 562 µM.
In the case of `N#C/C(=C\n1ccc(=O)[nH]c1=S)C(=O)c1ccc2ccccc2c1`, the EC50 was > 200 µM and the IC50 was determined as 123 µM.
In the case of `CC(C)CC(NC(=O)C(Cc1cnc[nH]1)NC(=O)C(CC(N)=O)NC(=O)C(NC(=O)C(CO)NC(=O)C(Cc1ccc(O)cc1)NC(=O)C(CO)NC(=O)C(C)NC(=O)C(N)CCCCN)C(C)O)C(=O)O` (stereo not drawn) (H-KASYSTNHL-OH; configuration not given here), the EC50 was > 61.7 µM and the IC50 is > 61.7 µM.
For the compound `COC1=C2C[C@@H](C)C[C@@H](OC)[C@@H](O)[C@H](C)/C=C(\C)[C@@H](OC(N)=O)[C@H](OC)/C=C\C=C(/C)C(=O)NC(=CC1=O)C2=O`, the EC50 is > 1.15 µM and the IC50 came to 0.0813 µM.
For `Cc1coc2c1C[C@@]1(C)[C@H](CCC[C@@H]1C)[C@H]2O`, the EC50 is > 200 µM and the IC50 turned out to be 27.5 µM.
Take `O=C1Nc2nccnc2C(=O)N2CCC[C@@H]12`: the EC50 was > 200 µM and the half-maximal inhibitory concentration (IC50) is > 200 µM.
In the case of `CCCCCCCCCCNP(=S)(NCCCCCCCCCC)c1ccccc1`, the result was inactive.
As to `CCCCCCCCCCCCCCCC(=O)Nc1ccn(C2CCC(COP(=O)(O)OCC3CCC(n4cnc5c(=O)[nH]cnc54)O3)O2)c(=O)n1` (stereo not drawn), the EC50 is 0.759 µM and the half-maximal inhibitory concentration (IC50) was > 100 µM.
In the same order, the values of `COc1ccccc1Cn1[nH]c(=O)c2cc([N+](=O)[O-])ccc21` are > 200 µM and 63.1 µM.
The corresponding values for `O=C1CCCCCN1c1ccccn1` are > 1320 µM and > 1320 µM.
Take `COc1ccc2c(c1)CCN1CCCc3ccc(OC)cc3C21` (stereo not drawn): the EC50 was > 200 µM and the half-maximal inhibitory concentration (IC50) turned out to be 51.3 µM.
Turning to `CC(=O)O[C@H]1CCC(C)=CCC[C@@]2(C)C(CC[C@@H]2[C@@H](C)/C=C/C(C)C)c2ccc(cc2C(=O)O)C1` (stereo partly drawn), the outcome was inactive.
Turning to `c1ccc2c(c1)nc(NC1CCCC1)c1[nH]c(C3CCCC3)nc12`, the EC50 is > 200 µM and the half-maximal inhibitory concentration (IC50) amounted to 25.1 µM.
As for `CC(C)(CCCCC(C)(C)NC(=O)Nc1ccc(Cl)c(Cl)c1)NC(=O)Nc1ccc(Cl)c(Cl)c1`, the EC50 is > 200 µM and the 50% inhibitory concentration (IC50) came out at 8.91 µM.
`c1ccc(SCc2ccc3c(c2)OCO3)cc1`: the EC50 was > 77.6 µM and the IC50 is > 77.6 µM.
Take `c1ccc(N=C2SC(=NC3CCCCC3)N(C3CCCCC3)C2=Nc2ccccc2)cc1`: the EC50 was > 200 µM and the IC50 was > 200 µM.
For the compound `COc1ccc2c(c1)[C@@H](NC(C)=O)CCc1cc(OC)c(OC)c(OC)c1-2`, the EC50 is > 0.0708 µM and the half-maximal inhibitory concentration (IC50) was 0.011 µM.
In the same order, the values of `COC(=O)c1c(/C(=N/Nc2ccc([N+](=O)[O-])cc2)[N+](=O)[O-])ssc1=N` are > 200 µM and 10 µM.
For the compound `CCCCCCCCCCCCCCCCSS(C)(=O)=O`, the EC50 was > 13.8 µM and the 50% inhibitory concentration (IC50) was determined as 6.92 µM.
In the same order, the values of `O=c1nc(N2CCCC2)oc2cc3ccccc3cc12` are > 200 µM and 89.1 µM.
Consider `CC(NNC(=O)CC(=O)N(C(=O)c1ccccc1)c1ccc(Cl)cc1)c1cc2ccccc2oc1=O` (stereo not drawn), for which the EC50 was > 200 µM and the IC50 is > 200 µM.
For `COc1nc(N)c(NC2OCC(O)C(O)C2O)c(=O)n1C` (stereo not drawn), the concentration giving a half-maximal response (EC50) was 195 µM and 182 µM and > 200 µM; the IC50 was 603 µM and 224 µM and > 200 µM.
For the compound `N#Cc1c(-c2ccc(Cl)cc2)c2c(n(C3OC(CO)C(O)C(O)C3O)c1=S)CCCC2` (stereo not drawn), the EC50 is > 200 µM and the half-inhibitory concentration (IC50) was 69.2 µM.
As to `CC(C)(C)C1=NO[C@H]2[C@@H](NC(=O)c3ccccc3)CC[C@@H]12`, the EC50 is > 871 µM and the IC50 is 302 µM.
With `COCC1=C(O)C=C2Oc3c(C(C)=O)c(O)c(C)c(O)c3[C@@]2(C)C1=O`, the EC50 is > 100 µM and the IC50 worked out at 12 µM.
For `COc1ccc(CCN2C(=O)CCC3=C2CCCC3=O)cc1OC`, the EC50 is > 200 µM and the half-inhibitory concentration (IC50) is > 200 µM.
As to `CC1=CC[C@@H]2C(=O)C=CC=C[C@H]12.[C-]#[O+].[C-]#[O+].[C-]#[O+].[Fe]`, the EC50 was > 316 µM and the concentration for half-maximal inhibition (IC50) stood at 178 µM.
The corresponding values for `Cn1c(=O)[nH]n(C2Cn3c(=O)n(C)c(=O)n3-c3ccccc32)c1=O` (stereo not drawn) are > 200 µM and > 200 µM.
Regarding `CC1CCOn2c1nc1ccccc1c2=O` (stereo not drawn), the EC50 was > 33.1 µM and the concentration for half-maximal inhibition (IC50) was > 33.1 µM.
On to `N#CC(c1ccccc1)(c1ccccc1)[C@@H](c1ccccc1)[C@H](Cc1ccccc1)NS(=O)(=O)c1ccccc1`, for which the EC50 is > 200 µM and the IC50 was > 200 µM.
For `Cc1cc(C)c2c(c1)CC1(Cc3c(C)cc(C)cc3C1=O)C2=O` (stereo not drawn), the EC50 is > 100 µM and the concentration for half-maximal inhibition (IC50) is > 100 µM.
Take `O=C1c2cccc3cccc(c23)C(=O)N1NCCO`: the EC50 is > 200 µM and the IC50 was 162 µM.
`CCC[CH2][Sn]1([CH2]CCC)[O]CC(C)[O]1` (stereo not drawn): the outcome was inactive.
As for `CCOC(=O)c1ccc(CS(=O)(=O)c2ccc(Cl)cc2)c([N+](=O)[O-])c1`, the EC50 is > 49 µM and the IC50 was > 49 µM.
Turning to `CCOC1NC(=O)c2ccccc21` (stereo not drawn), the outcome was inactive and the half-maximal inhibitory concentration (IC50) was > 200 µM.
As for `COC1(OC)CC2C(=O)CCCC21OC(C)=O` (stereo not drawn), the EC50 is > 1020 µM and the IC50 amounted to 22.4 µM.
For the compound `CC1=C(C(=O)CC(=O)C(=O)Nc2ccccc2C)Sc2ccccc2N1`, the EC50 was > 19.5 µM and the half-inhibitory concentration (IC50) was > 19.5 µM.
For `N.N.N.N.N.O=[N+]([O-])[O-].[Co+3].[O-][Cl+3]([O-])([O-])[O-]`, the result was inactive.
As to `COc1cc(OC)c(OC)cc1/C=C\c1ccnc2ccccc12`, the EC50 was > 30.9 µM and the 50% inhibitory concentration (IC50) is 1.48 µM.
Consider `CC(=O)NCc1c(C(N)=O)ncn1Cc1ccccc1`, for which the outcome was inactive.
As to `CN(C)c1ccc(/C=C/c2ccnc3ccc4ccccc4c23)cc1`, the EC50 is > 79.4 µM and the IC50 was > 79.4 µM.
Regarding `COc1cccc2ccc3c(c12)C(O)OC31CCc2c(C)cccc21` (stereo not drawn), the EC50 was > 85.1 µM and the 50% inhibitory concentration (IC50) was 42.7 µM.
As to `CCn1c2ccccc2c2cc(N=Nc3ccc(C#N)cc3)ccc21`, the EC50 is 10.7 µM and the IC50 was > 200 µM.
The corresponding values for `Cc1cc(S(=O)(=O)N=C2N(Cc3ccccc3)CCN2Cc2ccccc2)c(S)cc1Cl` are > 200 µM and > 200 µM.
As to `CCOC(=O)C(C)(c1c(C)[nH]c2ccccc12)c1c(C)[nH]c2ccccc12`, the result was inactive.
The same measure, in the same setting: the same measure for `CCCN(CCC)C(=O)COc1cc2c(O)c3c(O)c(C)c4c(c13)C(=O)C(C)(O/C=C/C(OC)C(C)C(OC(C)=O)C(C)C(O)C(C)C(O)C(C)/C=C/C=C(\C)C(=O)N2)O4` (stereo not drawn): “inactive”.
With `CC(C)CCC[C@@H](C)C1CCC2[C@@H]3CCC4C[C@H](CCC=C(c5cc(Cl)c(O)c(C(=O)O)c5)c5cc(Cl)c(O)c(C(=O)O)c5)CC[C@]4(C)C3CC[C@@]21C` (stereo partly drawn), the concentration for a half-maximal effect (EC50) is 35.5 µM and the IC50 was > 200 µM.
Regarding `COC(=O)C1=C2CCC(=O)[C@@]2(C)C(OC(C)=O)C=CC1` (stereo partly drawn), the outcome was inactive.
For `CC(=O)O[C@]1(C(C)=O)CC[C@H]2[C@@H]3C[C@H](C)C4=CC(=O)C=C[C@]4(C)[C@@]3(F)[C@@H](O)C[C@@]21C`, the outcome was inactive.
Consider `NC(=O)N/N=C1\CCCCc2ccccc21`, for which the EC50 was > 200 µM and the 50% inhibitory concentration (IC50) is > 200 µM.
As for `CC(=O)C1(C)CC(C#N)(C#N)C(C#N)=C1N` (stereo not drawn), the EC50 is > 200 µM and the IC50 is > 200 µM.
On to `O=c1[nH]c2cc([N+](=O)[O-])ccc2nc1/C(=N/Nc1ccccc1)C(O)c1ccccc1Cl` (stereo not drawn), for which the EC50 was > 363 µM and the concentration for half-maximal inhibition (IC50) was determined as 355 µM.
The corresponding values for `c1ccc2c(c1)oc1cc3c(cc12)nnc1cccn13` are > 200 µM and > 200 µM.
In the same order, the values of `O=[N+]([O-])c1ccc(C2OC3CC4C5CCCC5C3C4O2)cc1` (stereo not drawn) are > 200 µM and 19.5 µM.
In the same order, the values of `C1CCC2C(C1)CCCC2NC1=NCCO1` (stereo not drawn) are > 200 µM and 115 µM.
For `C=CCOCn1cnc2c(=O)[nH]c(N)nc21`, the EC50 was > 200 µM and the IC50 was > 200 µM.
Regarding `CCOc1ccc(C(=O)CCN2CCC3CCC(C3)C2)cc1` (stereo not drawn), the EC50 was > 200 µM and the half-maximal inhibitory concentration (IC50) amounted to 13.8 µM.
The corresponding values for `N#CC1=C(O)NC(O)=C(C#N)C12C(=O)Nc1ccccc12` are > 794 µM and > 794 µM.
Consider `Cc1ccc(/C(O)=C/c2nc3c(nc2NC24CC5CC(CC(C5)C2)C4)c(=O)oc2ccccc23)cc1`, for which the EC50 is > 2.19 µM and the concentration for half-maximal inhibition (IC50) was > 2.19 µM.
As to `CSc1nc(NC2OCC(O)C(O)C2O)c(N)c(=O)n1C` (stereo not drawn), the outcome was inactive.
For `O=c1c(-c2ccccc2)c2oc(c1-c1ccccc1)CSCc1cccc(c1)CSC2`, the EC50 was > 1.7 µM and the half-maximal inhibitory concentration (IC50) was > 1.7 µM.
For `CN1C/C(=C\c2cccs2)C2=NN(C)C(c3cccs3)C2C1` (stereo not drawn), the EC50 is > 200 µM and the half-inhibitory concentration (IC50) was > 200 µM.
Regarding `c1ccc(-c2nc3sccn3n2)cc1`, the result was inactive.
`CCOP(=O)(OCC)C(Nc1ccc(F)cc1)c1cccc([N+](=O)[O-])c1` (stereo not drawn): the EC50 was > 200 µM and the concentration for half-maximal inhibition (IC50) amounted to 55 µM.

For the origin of these results see PubChem BioAssay AID179 (DTP/NCI, 2004).
